Like-named read-outs stand apart in the source and are kept apart here.
Experiments:
Type in all cases: in vivo
[1] = tested on: Puccinia triticina; experiment: Wheat brown rust (PUCCRT) fungicidal activity on wheat seedlings
Experimental: Technical grades of materials were dissolved in acetone, which were then mixed with nine volumes of water containing 110 ppm Triton X-100. The fungicide solutions were applied onto wheat seedlings using an automated booth sprayer to run-off. All sprayed plants were allowed to air dry prior to further handling. Wheat plants (variety Yuma) were grown from seed in a greenhouse in 50% mineral soil/50% soil-less Metro mix until the first leaf was fully emerged, with 7-10 seedlings per pot. These plants were inoculated with an aqueous spore suspension of Septoria tritici either prior to or after fungicide treatments. After inoculation the plants were kept in 100% relative humidity (one day in a dark dew chamber followed by two to three days in a lighted dew chamber at 20° C.) to permit spores to germinate and infect the leaf. The plants were then transferred to a greenhouse set at 20° C. for disease to develop. When disease symptoms were fully expressed on the 1st leaves of untreated plants, infection levels were assessed on a scale of 0 to 100 percent disease severity. Percent disease control was calculated using the ratio of disease severity on treated plants relative to untreated plants. Evaluation of Fungicidal Activity: Wheat Brown Rust (Puccinia triticina; Synonym: Puccinia recondita f. sp. tritici; Bayer Code PUCCRT) Wheat plants (variety Yuma) were grown from seed in a greenhouse in 50% mineral soil/50% soil-less Metro mix until the first leaf was fully emerged, with 7-10 seedlings per pot. These plants were inoculated with an aqueous spore suspension of Puccinia triticina either prior to or after fungicide treatments. After inoculation the plants were kept in a dark dew room at 22° C. with 100% relative humidity overnight to permit spores to germinate and infect the leaf. The plants were then transferred to a greenhouse set at 24° C. for disease to develop. Fungicide formulation, application and disease assessment followed the procedures as described in the Example A.

[2] = tested on: Alternaria solani; experiment: Tomato early blight (ALTESO) fungicidal activity; conditions: 24 h, 1 Day Protectant, read-out: Disease Control ALTESO 1DP
Experimental: Technical grades of materials were dissolved in acetone, which were then mixed with nine volumes of water containing 110 ppm Triton X-100. The fungicide solutions were applied onto wheat seedlings using an automated booth sprayer to run-off. All sprayed plants were allowed to air dry prior to further handling. Wheat plants (variety Yuma) were grown from seed in a greenhouse in 50% mineral soil/50% soil-less Metro mix until the first leaf was fully emerged, with 7-10 seedlings per pot. These plants were inoculated with an aqueous spore suspension of Septoria tritici either prior to or after fungicide treatments. After inoculation the plants were kept in 100% relative humidity (one day in a dark dew chamber followed by two to three days in a lighted dew chamber at 20° C.) to permit spores to germinate and infect the leaf. The plants were then transferred to a greenhouse set at 20° C. for disease to develop. When disease symptoms were fully expressed on the 1st leaves of untreated plants, infection levels were assessed on a scale of 0 to 100 percent disease severity. Percent disease control was calculated using the ratio of disease severity on treated plants relative to untreated plants. Evaluation of Fungicidal Activity: Tomato Early Blight (Alternaria Solani; Bayer Code […]) Tomato plants (variety Outdoor girl) were propagated in soil-less Metro mix, with each pot having one plant, and used when 12 to 14 days old. Test plants were inoculated with an aqueous spore suspension of Alternaria solani 24 hr after fungicide treatments. After inoculation the plants were kept in 100% relative humidity (one day in a dark dew chamber followed by two to three days in a lighted dew chamber at 20° C.) to permit spores to germinate and infect the leaf. The plants were then transferred to a growth room at 22° C. for disease to develop. Fungicide formulation, application and disease assessment on the sprayed leaves followed the procedures as described in the Example A.

[3] = tested on: Leptosphaeria nodorum; experiment: Wheat glume blotch (LEPTNO) fungicidal activity; conditions: Parastagonospora nodorum, 24 h, 1 Day Protectant, read-out: Disease Control LEPTNO 1DP
Experimental: Technical grades of materials were dissolved in acetone, which were then mixed with nine volumes of water containing 110 ppm Triton X-100. The fungicide solutions were applied onto wheat seedlings using an automated booth sprayer to run-off. All sprayed plants were allowed to air dry prior to further handling. Wheat plants (variety Yuma) were grown from seed in a greenhouse in 50% mineral soil/50% soil-less Metro mix until the first leaf was fully emerged, with 7-10 seedlings per pot. These plants were inoculated with an aqueous spore suspension of Septoria tritici either prior to or after fungicide treatments. After inoculation the plants were kept in 100% relative humidity (one day in a dark dew chamber followed by two to three days in a lighted dew chamber at 20° C.) to permit spores to germinate and infect the leaf. The plants were then transferred to a greenhouse set at 20° C. for disease to develop. When disease symptoms were fully expressed on the 1st leaves of untreated plants, infection levels were assessed on a scale of 0 to 100 percent disease severity. Percent disease control was calculated using the ratio of disease severity on treated plants relative to untreated plants. Evaluation of Fungicidal Activity: Wheat Glume Blotch (Leptosphaeria Nodorum; Bayer Code […]) Wheat plants (variety Yuma) were grown from seed in a greenhouse in 50% mineral soil/50% soil-less Metro mix until the first leaf was fully emerged, with 7-10 seedlings per pot. These plants were inoculated with an aqueous spore suspension of Leptosphaeria nodorum 24 hr after fungicide treatments. After inoculation the plants were kept in 100% relative humidity (one day in a dark dew chamber followed by two days in a lighted dew chamber at 20° C.) to permit spores to germinate and infect the leaf. The plants were then transferred to a greenhouse set at 20° C. for disease to develop. Fungicide formulation, application and disease assessment followed the procedures as described in the Example A.

[4] = tested on: Erysiphe cichoracearum; experiment: Powdery mildew of cucumber (ERYSCI) fungicidal activity; conditions: Golovinomyces cichoracearum, 24 h, 1 Day Protectant, read-out: Disease Control ERYSCI 1DP
Experimental: Technical grades of materials were dissolved in acetone, which were then mixed with nine volumes of water containing 110 ppm Triton X-100. The fungicide solutions were applied onto wheat seedlings using an automated booth sprayer to run-off. All sprayed plants were allowed to air dry prior to further handling. Wheat plants (variety Yuma) were grown from seed in a greenhouse in 50% mineral soil/50% soil-less Metro mix until the first leaf was fully emerged, with 7-10 seedlings per pot. These plants were inoculated with an aqueous spore suspension of Septoria tritici either prior to or after fungicide treatments. After inoculation the plants were kept in 100% relative humidity (one day in a dark dew chamber followed by two to three days in a lighted dew chamber at 20° C.) to permit spores to germinate and infect the leaf. The plants were then transferred to a greenhouse set at 20° C. for disease to develop. When disease symptoms were fully expressed on the 1st leaves of untreated plants, infection levels were assessed on a scale of 0 to 100 percent disease severity. Percent disease control was calculated using the ratio of disease severity on treated plants relative to untreated plants. Evaluation of Fungicidal Activity: Powdery Mildew of Cucumber (Erysiphe cichoracearum; Bayer Code […]) Cucumber seedlings (variety Bush Pickle) were grown in soil-less Metro mix, with one plant per pot, and used in the test when 12 to 14 days old. Plants were inoculated with a spore suspension 24 hr following fungicide treatments. After inoculation the plants remained in the greenhouse set at 20° C. until disease was fully expressed. Fungicide formulation, application and disease assessment on the sprayed leaves followed the procedures as described in the Example A.

[5] = 24 h, 1 Day Protectant, read-out: Disease Control PUCCRT 1 DP
[6] = 72 h, 3 Day Curative, read-out: Disease Control PUCCRT 3 DC

COc1ccnc(C(=O)N[C@H]2COC[C@H](Cc3ccccc3)[C@@H](OC(=O)c3ccccc3)[C@H](C)OC2=O)c1OCOC(C)=O [Compound 37]
pest or weed control at 100 ppm [1, 5]: 80 to 100%
pest or weed control at 100 ppm [1, 6]: 80 to 100%
pest or weed control at 100 ppm [2]: 80 to 100%
pest or weed control at 100 ppm [3]: 80 to 100%

COc1ccnc(C(=O)N[C@H]2COC[C@H](Cc3ccccc3)[C@@H](OCC(C)C)[C@H](C)OC2=O)c1OCOC(=O)C(C)(C)C [Compound 7]
pest or weed control at 100 ppm [1, 5]: 80 to 100%
pest or weed control at 100 ppm [1, 6]: 80 to 100%
pest or weed control at 100 ppm [4]: 80 to 100%
pest or weed control at 100 ppm [2]: 80 to 100%
pest or weed control at 100 ppm [3]: 80 to 100%

COc1ccnc(C(=O)N[C@H]2COC[C@H](Cc3ccccc3)[C@@H](OC3CCCC3)[C@H](C)OC2=O)c1OCOC(=O)C(C)C [Compound 108]
pest or weed control at 100 ppm [1, 5]: 80 to 100%
pest or weed control at 100 ppm [1, 6]: 80 to 100%
pest or weed control at 100 ppm [4]: 0 to 80%
pest or weed control at 100 ppm [2]: 80 to 100%
pest or weed control at 100 ppm [3]: 80 to 100%

COc1ccnc(C(=O)N[C@H]2COC[C@H](Cc3ccccc3)[C@@H](OCC(C)C)[C@H](C)OC2=O)c1O [Compound 2, N-((3S,7S,8R,9S)-7-benzyl-8-isobutoxy-9-methyl-2-oxo-1,5-dioxonan-3-yl)-3-hydroxy-4-methoxypicolinamide]
pest or weed control at 100 ppm [1, 5]: 80 to 100%
pest or weed control at 100 ppm [1, 6]: 80 to 100%

CCCCCO[C@@H]1[C@@H](Cc2ccccc2)COC[C@H](NC(=O)c2nccc(OC)c2OCOC(C)=O)C(=O)O[C@H]1C [Compound 26]
pest or weed control at 100 ppm [1, 5]: 80 to 100%
pest or weed control at 100 ppm [1, 6]: 80 to 100%
pest or weed control at 100 ppm [4]: 80 to 100%
pest or weed control at 100 ppm [2]: 80 to 100%
pest or weed control at 100 ppm [3]: 80 to 100%

COc1ccnc(C(=O)N[C@H]2COC[C@H](Cc3ccccc3)[C@@H](OCCC(=O)N(C)C)[C@H](C)OC2=O)c1OCOC(C)=O [Compound 15]
pest or weed control at 100 ppm [1, 5]: 0 to 80%
pest or weed control at 100 ppm [1, 6]: 0 to 80%
pest or weed control at 100 ppm [2]: 0 to 80%
pest or weed control at 100 ppm [3]: 0 to 80%

COc1ccnc(C(=O)N[C@H]2COC[C@H](Cc3ccccc3)[C@@H](OC(=O)C3CC3)[C@H](C)OC2=O)c1OCOC(C)=O [Compound 38]
pest or weed control at 100 ppm [1, 5]: 80 to 100%
pest or weed control at 100 ppm [1, 6]: 80 to 100%
pest or weed control at 100 ppm [4]: 0 to 80%
pest or weed control at 100 ppm [2]: 80 to 100%
pest or weed control at 100 ppm [3]: 80 to 100%

CCCO[C@@H]1[C@@H](Cc2ccccc2)COC[C@H](NC(=O)c2nccc(OC)c2OCOC(C)=O)C(=O)O[C@H]1C [Compound 22]
pest or weed control at 100 ppm [1, 5]: 80 to 100%
pest or weed control at 100 ppm [1, 6]: 80 to 100%
pest or weed control at 100 ppm [4]: 80 to 100%
pest or weed control at 100 ppm [2]: 80 to 100%
pest or weed control at 100 ppm [3]: 80 to 100%

COc1ccnc(C(=O)N[C@H]2COC[C@H](Cc3ccccc3)[C@@H](OC3CCCC3)[C@H](C)OC2=O)c1OC(C)=O [Compound 107]
pest or weed control at 100 ppm [1, 5]: 80 to 100%
pest or weed control at 100 ppm [1, 6]: 80 to 100%
pest or weed control at 100 ppm [4]: 0 to 80%
pest or weed control at 100 ppm [2]: 0 to 80%
pest or weed control at 100 ppm [3]: 80 to 100%

COc1ccnc(C(=O)N[C@H]2COC[C@H](Cc3ccccc3)[C@@H](OC3CCCC3)[C@H](C)OC2=O)c1OCOC(C)=O [Compound 106]
pest or weed control at 100 ppm [1, 5]: 80 to 100%
pest or weed control at 100 ppm [1, 6]: 80 to 100%
pest or weed control at 100 ppm [4]: 80 to 100%
pest or weed control at 100 ppm [2]: 0 to 80%
pest or weed control at 100 ppm [3]: 80 to 100%

COCCCO[C@@H]1[C@@H](Cc2ccccc2)COC[C@H](NC(=O)c2nccc(OC)c2OCOC(C)=O)C(=O)O[C@H]1C [Compound 16]
pest or weed control at 100 ppm [1, 5]: 80 to 100%
pest or weed control at 100 ppm [1, 6]: 80 to 100%
pest or weed control at 100 ppm [4]: 80 to 100%
pest or weed control at 100 ppm [2]: 80 to 100%
pest or weed control at 100 ppm [3]: 80 to 100%

COc1ccnc(C(=O)N[C@H]2COC[C@H](Cc3ccccc3)[C@@H](Oc3ccccc3)[C@H](C)OC2=O)c1OCOC(C)=O [Compound 40]
pest or weed control at 100 ppm [1, 5]: 80 to 100%
pest or weed control at 100 ppm [1, 6]: 80 to 100%
pest or weed control at 100 ppm [2]: 80 to 100%
pest or weed control at 100 ppm [3]: 80 to 100%

COc1ccnc(C(=O)N[C@H]2COC[C@H](Cc3ccccc3)[C@@H](OCCC(C)OC)[C@H](C)OC2=O)c1OCOC(C)=O (some centres unmarked) [Compound 46]
pest or weed control at 100 ppm [1, 5]: 80 to 100%
pest or weed control at 100 ppm [1, 6]: 80 to 100%
pest or weed control at 100 ppm [4]: 80 to 100%
pest or weed control at 100 ppm [2]: 0 to 80%
pest or weed control at 100 ppm [3]: 80 to 100%

COc1ccnc(C(=O)N[C@H]2COC[C@H](Cc3ccccc3)[C@@H](OCC(C)C)[C@H](C)OC2=O)c1OCOC(=O)C(C)C [Compound 3]
pest or weed control at 100 ppm [1, 5]: 80 to 100%
pest or weed control at 100 ppm [1, 6]: 80 to 100%
pest or weed control at 100 ppm [4]: 80 to 100%
pest or weed control at 100 ppm [2]: 80 to 100%
pest or weed control at 100 ppm [3]: 80 to 100%

COc1ccnc(C(=O)N[C@H]2COC[C@H](Cc3ccccc3)[C@@H](OCCCC(F)(F)F)[C@H](C)OC2=O)c1OCOC(C)=O [Compound 23]
pest or weed control at 100 ppm [1, 5]: 80 to 100%
pest or weed control at 100 ppm [1, 6]: 80 to 100%
pest or weed control at 100 ppm [4]: 80 to 100%
pest or weed control at 100 ppm [2]: 80 to 100%
pest or weed control at 100 ppm [3]: 80 to 100%

COc1ccnc(C(=O)N[C@H]2COC[C@H](Cc3ccccc3)[C@@H](OCC(C)C)[C@H](C)OC2=O)c1OC(=O)OC(C)C [Compound 10, 2-(((3S,7S,8R,9S)-7-benzyl-8-isobutoxy-9-methyl-2-oxo-1,5-dioxonan-3-yl)carbamoyl)-4-methoxypyridin-3-yl isopropyl carbonate]
pest or weed control at 100 ppm [1, 5]: 80 to 100%
pest or weed control at 100 ppm [1, 6]: 80 to 100%
pest or weed control at 100 ppm [4]: 80 to 100%
pest or weed control at 100 ppm [2]: 0 to 80%
pest or weed control at 100 ppm [3]: 80 to 100%

Source: patent publication US8835462B2, “Macrocyclic picolinamides as fungicides” (Dow AgroSciences LLC, priority 2012, dated 2014)
